The record followed here is ChEMBL document CHEMBL1201862, “PubChem BioAssay data set” (2004).

Common to all, as to test: DTP human tumour cell line panel, 48 h
In test [1] the test system is SK-MEL-2.
Test [2] has as its system NCI-H226.
Test [3] deals with OVCAR-8.
Test [4] deals with SW-620.
The test system of test [5] is MDA-MB-231.
Test [6] concerns RXF 393.
The subject of test [7] is LOX IMVI.
For test [8], the system named is TK-10.
Test [9] has as its system DU-145.
Test [10] relates to KM12.
For test [11], the system named is ACHN.
Test [12] relates to OVCAR-5.
In test [13] the test system is UACC-257.
Test [14] relates to MCF7.
Test [15] deals with SK-MEL-28.
Test [16] concerns Hs-578T.
In test [17] the test system is SNB-19.
Test [18] relates to K562.
Test [19] has as its system MDA-MB-435.
Test [20] has as its system SK-MEL-5.

Each structure is given as a SMILES string.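 Dose response: 5 concentrations. Exposure: 48 h. Format: 96-well plates. Endpoint: linear interpolation; highest concentration if not reached. GI50: concentration for 50% inhibition of growth.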 Activity calls are given as the source filed them. No stated cut-off is given here; in the data, active = GI50 up to about 1.1 µM and inactive = higher. Residues, ends and D or L forms follow the SMILES beside them. *: point of attachment. Cbz = O=C(OCc1ccccc1)*

In the case of `CCCC(=O)Nc1cc(/C=C/C(=O)N2CC(CCl)c3ccc([N+](=O)[O-])cc32)n(C)c1` (stereo not given), the GI50 in test [1] is > 100 µM (inactive); in test [2], 21.8 µM (inactive); in test [3], 30.3 µM (inactive); in test [4] it was > 100 µM (inactive); in test [5] it was 21.6 µM (inactive); in [6], > 100 µM (inactive). Also, the GI50 in [7] was 73.5 µM (inactive); in [8], 20 µM (inactive); in test [9] it was > 100 µM (inactive); in test [10] it was 19.5 µM (inactive); in test [11], 50.9 µM (inactive); in [12], > 100 µM (inactive). The GI50 in test [13] is > 100 µM (inactive); in test [14] it was 68.7 µM (inactive); in test [15], > 100 µM (inactive); in test [16], 26.8 µM (inactive); in test [17], > 100 µM (inactive); in [18] it was > 100 µM (inactive). Besides, the GI50 in test [19] was > 100 µM (inactive).

As to `O=C(CCn1ccnc1[N+](=O)[O-])NCCCn1ccnc1[N+](=O)[O-]`, the GI50 in test [1], in test [2], in [3], in test [4], in test [5] and in [6] was > 100 µM (inactive) in each case. The GI50 in test [7], in [8], in test [9], in test [10], in [11] and in [12] was > 100 µM (inactive) throughout. Besides, the GI50 in [13], in test [14], in test [15], in test [20], in test [16] and in [18] was > 100 µM (inactive) each time. Further, the GI50 in test [19] was > 100 µM (inactive).

As to `COc1cc2ncnc(NS(=O)(=O)c3cc4ccccc4s3)c2cc1OC`, the GI50 was > 100 µM (inactive) in [1]; > 100 µM (inactive) in [2]; > 100 µM (inactive) in [3]; > 100 µM (inactive) in [4]; > 100 µM (inactive) in test [5]; 29.8 µM (inactive) in test [6]. Further, the GI50 in test [7], in test [8], in [9], in test [10], in test [11] and in [12] was > 100 µM (inactive) throughout. Also, the GI50 in [13] is > 100 µM (inactive); in test [14], > 100 µM (inactive); in [20], > 100 µM (inactive); in test [16], 49.9 µM (inactive); in test [17], > 100 µM (inactive); in test [18] it was 56.1 µM (inactive). The GI50 in test [19] was > 100 µM (inactive).

For `Cc1sc2c(c1C)/C(=N\O)c1cccn1-2`, the GI50 in test [1] is 45.2 µM (inactive); in [2] it was 29.7 µM (inactive); in test [3] it was 45.8 µM (inactive); in [4], 58.6 µM (inactive); in test [5], 52.8 µM (inactive); in test [6] it was 23.2 µM (inactive). Moreover, the GI50 was 55.7 µM (inactive) in [7]; 43.6 µM (inactive) in test [8]; 61 µM (inactive) in test [9]; 31.6 µM (inactive) in test [10]; 37.2 µM (inactive) in test [11]; > 100 µM (inactive) in [12]. Moreover, the GI50 was 93.5 µM (inactive) in test [13]; 39.1 µM (inactive) in test [14]; 93.3 µM (inactive) in test [15]; 46.1 µM (inactive) in [20]; 16.9 µM (inactive) in [16]; 23.3 µM (inactive) in [17]. The GI50 in [19] was 54 µM (inactive).

Regarding `C=C(C1=CC(=O)C(C)(C)O1)[C@@H]1CC=C([C@@H]2CC[C@H]3[C@@]2(C)CC[C@H]2C(C)(C)C(=O)[C@H](OC(=O)CC(C)(O)CC(=O)O)C[C@]32C)[C@H](O)O1` (stereo not given in full), the GI50 was 12.9 µM (inactive) in test [1]; 16.3 µM (inactive) in test [2]; 13.4 µM (inactive) in test [3]; 10.7 µM (inactive) in [4]; 17.4 µM (inactive) in test [5]; 0.106 µM (active) in [6]. In addition, the GI50 in test [7] is 13.1 µM (inactive); in test [8] it was 27.4 µM (inactive); in [9], 16.7 µM (inactive); in test [10] it was 14.1 µM (inactive); in [11], 14 µM (inactive); in test [12] it was 14.5 µM (inactive). For the same molecule, the GI50 is 15.2 µM (inactive) in test [13]; 9.84 µM (inactive) in [14]; 12.5 µM (inactive) in test [20]; 23.9 µM (inactive) in test [16]; 25.4 µM (inactive) in test [17]; 25.7 µM (inactive) in [18]. In addition, the GI50 in test [19] was 15.1 µM (inactive).

Take `c1coc(C2=Nc3cccc4cccc(c34)N2)c1`: the GI50 is 29.3 µM (inactive) in test [1]; > 100 µM (inactive) in [2]; 39.3 µM (inactive) in test [3]; 38.6 µM (inactive) in [4]; 34.6 µM (inactive) in test [5]; 25.9 µM (inactive) in [6]. In addition, the GI50 was 41.9 µM (inactive) in [7]; > 100 µM (inactive) in test [8]; > 100 µM (inactive) in test [9]; 19.6 µM (inactive) in test [10]; 22.1 µM (inactive) in test [11]; 41.4 µM (inactive) in test [13]. Besides, the GI50 is 24.1 µM (inactive) in [14]; 72.9 µM (inactive) in [15]; 34.9 µM (inactive) in [20]; 55.6 µM (inactive) in test [16]; > 100 µM (inactive) in test [17]; 38.7 µM (inactive) in [18]. Also, the GI50 in [19] is 50.8 µM (inactive).

As for `Cc1ccc(C(CCO)CCO)nc1`, the GI50 in test [1], in test [2], in test [3], in [4], in [5] and in [6] was > 100 µM (inactive) in each case. In addition, the GI50 in test [7], in [8], in test [9], in test [10], in test [11] and in test [12] was > 100 µM (inactive) each time. Moreover, the GI50 in test [13], in [14], in [15], in [20], in test [16] and in test [17] was > 100 µM (inactive) throughout. Further, the GI50 in test [19] is > 100 µM (inactive).

Regarding `CCOC(=O)c1ccc(Nc2nc3ccccc3nc2-c2cccs2)cc1`, the GI50 is > 100 µM (inactive) in test [2]; 93.1 µM (inactive) in test [3]; > 10 µM (inactive) in [4]; 18.7 µM (inactive) in test [5]; 23.7 µM (inactive) in test [6]; 21.9 µM (inactive) in test [7]. In addition, the GI50 is 23.3 µM (inactive) in [8]; > 100 µM (inactive) in [9]; 49.1 µM (inactive) in [10]; 47.8 µM (inactive) in [11]; > 100 µM (inactive) in test [12]; 39.8 µM (inactive) in [13]. In addition, the GI50 in test [14] was 34 µM (inactive); in test [15] it was > 100 µM (inactive); in test [20], 98.6 µM (inactive); in [16] it was > 100 µM (inactive); in [17], > 100 µM (inactive); in test [18], 46.8 µM (inactive). Further, the GI50 in test [19] was 36.9 µM (inactive).

Consider `Cc1ccc(S(=O)(=O)N/N=C2\CC(C)OC3=C2CCCCCC3)cc1` (stereo not given), for which the GI50 in test [2] is 21.6 µM (inactive); in test [3], 21.2 µM (inactive); in [4], 20.5 µM (inactive); in [5], 19.1 µM (inactive); in [6], 17.6 µM (inactive); in [7] it was 18.7 µM (inactive). Also, the GI50 was 20.5 µM (inactive) in [8]; 19.4 µM (inactive) in [9]; 19.7 µM (inactive) in test [10]; 18.5 µM (inactive) in [11]; 19.5 µM (inactive) in test [12]; 18.7 µM (inactive) in [13]. Besides, the GI50 is 19 µM (inactive) in test [14]; 22.1 µM (inactive) in test [15]; 16.9 µM (inactive) in test [20]; 21.2 µM (inactive) in test [16]; 22.2 µM (inactive) in [17]; 21.5 µM (inactive) in test [18]. For the same molecule, the GI50 in test [19] is 18.5 µM (inactive).

With `CCOC(=O)CCC(NC(=O)OCc1ccccc1)C(=O)NC(CCC(=O)OCC)C(=O)OCC` (stereo not given) (Cbz-Glu(OEt)-Glu(OEt)-OEt; configuration not given here), the GI50 in [1], in test [2], in test [3], in test [4], in test [5] and in [6] was > 100 µM (inactive) throughout. In addition, the GI50 in test [7], in test [9], in test [10], in [11], in [12] and in [13] was > 100 µM (inactive) throughout. In addition, the GI50 in [14], in test [15], in test [20], in [16], in [17] and in test [18] was > 100 µM (inactive) each time. The GI50 in test [19] was > 100 µM (inactive).
